{"source": "paper PMC3578829", "about": "“A Small Molecule (Pluripotin) as a Tool for Studying Cancer Stem Cell Biology: Proof of Concept” (PLoS ONE, 2013)", "key": {"[1]": {"tested_on": "Seven Colon Tumor Lines of the NCI60 Panel", "test": "Limiting dilution tumorigenicity, combined colon tumor lines", "format": "in vivo, NOD.SCID mice", "details": "for Tumor take rate, TOTAL: 7 colon tumor lines treated 5 days with 0.1 µM SC-1", "protocol": "Five day exposures were conducted.\n(§1) Six week old female NOD.SCID mice were randomly assigned to each of 20 treatment arms (n = 5/group). Treated and control colon tumor lines were enzymatically harvested and counted prior to dilution in RPMI 1640 (at 10, 100, 1,000, 10,000 cells/inoculum) for subcutaneous injection into the axillary region using a volume of […]. Positive control groups were established such that tumor formation occurred in all mice in approximately one week thus confirming that all tumor lines studied were tumorigenic. Cell inocula for the positive control groups ranged from 1×10^6 to 2.5×10^6. Cell viability of the cell stocks was assessed by trypan blue exclusion prior to dilution for injection and was routinely found to be >95%. Tumor formation was monitored weekly using caliper measurements and the tumor mass was calculated as weight in mg = 1/2×(tumor length)×(tumor width)^2. All experiments were terminated at 120 days or when tumor weight exceeded 2000 mg for any individual mouse. In selected studies, tumor cells were resuspended in Matrigel (50% concentration, BD Biosciences) prior to injection.\nChi square tests and nonparametric conditional estimate for the Cochran Mantel-Haenzel common odds ratio were performed for the limiting dilution tumorigenicity studies. In the later case, the tumor lines were used as the stratification variable and the test evaluated whether the tumor take rate was equal in the two groups (control and treated). The purpose of combining data across distinct colon tumor lines was to aggregate small changes that if summed, may represent a heterogeneous population of patients with colon tumors, similar to analyses in clinical trials."}, "[2]": {"tested_on": "HCT-15", "test": "Limiting dilution tumorigenicity with Matrigel co-injection", "format": "in vivo, NOD.SCID mice", "design": "key to Tumorigenicity: Y indicates increased tumor formation or increased time to appearance or both.; Y ^%: Y indicates increased tumor formation when Matrigel was co-injected", "excerpt": "To explore the lack of a tumorigenic effect for SC-1 treated HCT-15 cells, the limiting dilution tumorigenicity assay was repeated with the addition of Matrigel to the injected cells (10, 100, 1000, and 10000 cells per injection). A protein support such as Matrigel may provide anchoring, a substrate for angiogenesis, and growth factors. […] For SC-1 treated cells co-injected with Matrigel, 5 of 5 mice had tumor formation over the 99 day observation period at the 10 cell inoculum (Figure 1).\nas §1"}, "[3]": {"tested_on": "COLO 205", "test": "Soft agar cloning assay", "format": "cell-based", "protocol": "(§2) The soft agar colony formation assay has been previously described. In brief, for each treatment condition, triplicate 35 mm^2 dishes were coated with a 1 ml base layer containing 0.7% agarose (Seaplaque: FMC Corp., Rockland, ME). On day 0, cells were dissociated, washed once in growth medium, and subcultured by layering various cell concentrations in 0.5 ml culture medium containing 0.3% agarose onto the base coat. Culture dishes were transferred to a refrigerator (4°C) for 15 min, to room temperature for 10 min, and then to culture incubators. An upper layer of 0.5 ml culture medium was applied on day 0. Cultures were stained with MTT (1 mg/ml) for visualization and imaging at multiple time intervals (day 7 and 14). Cumulative counts of colonies (diameters, >60 µm) and cumulative volumes of CFU (diameters >120 µm) were determined with an Omnicon FAS-II (Bausch & Lomb, Rochester, NY) following calibration with an Omnicon test plate 3 and polystyrene microspheres embedded in soft agar matrix. The evaluable region of each culture dish (35 contiguous fields equivalent to 51% of the cell layer culture volume) was analyzed. Selective scoring of viable cell groups was achieved by adjustment of the instrument detection threshold to exclude images of nonstained cellular material and debris. The data was analyzed with Lotus Symphony software."}, "[4]": {"tested_on": "HCC-2998", "test": "Soft agar cloning assay", "format": "cell-based", "protocol": "as §2"}, "[5]": {"tested_on": "HCT-116", "test": "Soft agar cloning assay", "format": "cell-based", "protocol": "as §2"}, "[6]": {"tested_on": "HT29", "test": "Soft agar cloning assay", "format": "cell-based", "protocol": "as §2"}, "[7]": {"tested_on": "KM12", "test": "Soft agar cloning assay", "format": "cell-based", "protocol": "as §2"}, "[8]": {"tested_on": "colon cell lines", "test": "NCI Anticancer Screen growth inhibition", "format": "cell-based", "details": "2 day exposure; mean±s.e.m., n = 7 colon cell lines", "excerpt": "(n = 6, paired Student’s t test, p = 0.02, Table S1). […] Finally, in a representative SC-1 sensitive tumor line (HCT-116), there was no difference in the distribution of the SC-1 treated cell population across the cell cycle compared to control treated cells (Figure S4)."}, "[9]": {"tested_on": "OCT4", "test": "Immunoblotting of OCT4 in HCC-2998", "format": "cell-based", "details": "0.1 µM SC-1", "protocol": "(§3) Standard protein electrophoretic techniques were followed using previously published protocols. For these studies, the colon lines were cultured for 5 days with and without treatments, harvested with trypsin (0.25% trypsin 0.5 mM EDTA, Invitrogen), counted and lysed with a whole cell lysis buffer (10 mM Tris, 1.0 mM EDTA, 50 mM NaCl, 0.5% deoxycholate, 0.5% NP-40, 0.5% SDS, 1.0 mM PMSF, and aprotonin and a cocktail of phosphatase and protease inhibitors). The whole cell lysate was heated to 100°C for 10 min and then fractionated (1000 g, 10 min, 4°C). Protein concentrations were measured with the Pierce BCA Protein Assay. Twenty to 40 µg of protein lysate per lane were loaded onto 10% SDS polyacrylamide gels (Ready-Gels, Biorad) with Laemmli buffer. For immunoblotting, the primary antibodies were diluted in Tween/Tris wash buffer (0.1 mM Tris-HCl pH 7.5, 2.5% Tween-20, 150 mM NaCl) and 5% BSA or nonfat dry milk and incubated overnight at 4°C. Visualization of specific bands was accomplished with an alkaline phosphatase-labeled secondary anti-immunoglobulin antibody and the ECF Chemifluorescent reagent (GE Amersham). Pixel intensity of the imaged bands was measured using STORM (GE Amersham) and Image Quant Software. Normalization for loading was accomplished by reprobing with an anti-actin antibody, quantification of pixel intensity and data normalization."}, "[10]": {"tested_on": "RSK2", "test": "Immunoblotting of RSK2 protein levels in COLO 205", "format": "cell-based", "details": "5 days of exposure to 0.1 µM SC-1", "protocol": "Since SC-1 inhibited RSK2 kinase activity, we first determined if RSK2 protein levels were altered.\nas §3, with “Visualization of specific bands was accomplished with an alkaline phosphatase-labeled secondary anti-immunoglobulin antibody and the ECF Chemifluorescent reagent (GE Amersham).” left out"}, "[11]": {"details": "soft agar, summary of SC-1 effects"}}, "note": "“And” between values parts separate entries of the source, which are not always exact repeats. Identical values can stand only once."}
{"smiles": "Cc1cc(Nc2ncc3c(n2)N(C)C(=O)N(c2cc(NC(=O)c4cccc(C(F)(F)F)c4)ccc2C)C3)n(C)n1", "note": "[SC-1]", "values": [{"measurement": "Tumor take rate, TOTAL", "setting": "[1]; 100 cells inoculated s.c.", "result": "2/35"}, {"measurement": "Tumor take rate, TOTAL", "setting": "[1]; 1000 cells inoculated s.c.", "result": "6/35"}, {"measurement": "Tumor take rate, TOTAL", "setting": "[1]; 10000 cells inoculated s.c.", "result": "19 of 35 and 19/35"}, {"measurement": "Frequency estimate of tumor initiating ability, increase vs control", "setting": "[1]; cumulative tumor take rate, 7 colon tumor lines, calculated from Taswell", "result": "approximately 2 fold"}, {"measurement": "Mean day to 1000 mg tumor", "setting": "[1]; mean±s.e.m. of 5 colon lines forming tumors, 10,000 cells/inoculum, 0.1 µM SC-1 pretreatment", "result": "83 ± 19", "unit": "days"}, {"measurement": "Tumor formation", "setting": "[2]; HCT-15, 100, 1000, and 10000 cells per injection with Matrigel", "result": "tumors formed in all mice"}, {"measurement": "Tumorigenicity", "setting": "[2]; HCT-15, Matrigel co-injected, summary of SC-1 effects", "result": "Y ^%"}, {"measurement": "Tumor formation (take rate)", "setting": "[2]; HCT-15 SC-1 treated, 10 cell inoculum co-injected with Matrigel, 99 day observation", "result": "5 of 5"}, {"measurement": "Colony formation in soft agar vs control", "setting": "[3]; 0.1 µM SC-1 for 24 hrs prior to cloning", "result": "increased colony formation was found only at the highest plating density"}, {"measurement": "Cloning efficiency in soft agar vs control", "setting": "[3]; 0.1 µM SC-1 for five days", "result": "significant increases in cloning efficiencies"}, {"measurement": "Clonogenicity", "setting": "[3]; [11]", "result": "Y"}, {"measurement": "Cloning efficiency in soft agar vs control", "setting": "[4]; 0.1 µM SC-1 for five days", "result": "significant increases in cloning efficiencies"}, {"measurement": "Clonogenicity", "setting": "[4]; [11]", "result": "Y"}, {"measurement": "Cloning efficiency in soft agar vs control", "setting": "[5]; 0.1 µM SC-1 for five days", "result": "significant increases in cloning efficiencies"}, {"measurement": "Clonogenicity", "setting": "[5]; [11]", "result": "Y"}, {"measurement": "Cloning efficiency in soft agar vs control", "setting": "[6]; 0.1 µM SC-1 for five days", "result": "significant increases in cloning efficiencies"}, {"measurement": "Clonogenicity", "setting": "[6]; [11]", "result": "Y"}, {"measurement": "Cloning efficiency in soft agar vs control", "setting": "[7]; 0.1 µM SC-1 for five days", "result": "significant increases in cloning efficiencies"}, {"measurement": "Clonogenicity", "setting": "[7]; [11]", "result": "Y"}, {"measurement": "GI50", "setting": "[8]", "result": "91 ± 70", "unit": "nM"}, {"measurement": "OCT4 protein expression", "setting": "[9]", "result": "increased"}, {"measurement": "Decrease of RSK2 protein levels", "setting": "[10]", "result": 33, "unit": "%"}]}
